The record followed here is PMC6327999, “Hydroxyl-substituted double Schiff-base condensed 4-piperidone/cyclohexanones as potential anticancer agents with biological evaluation” (Journal of Enzyme Inhibition and Medicinal Chemistry, 2019).

Data set [1] relates to human lung carcinoma cells (A549). The experiment in a line: Cytotoxicity, MTT assay, A549. It is filed as cell-based. The method in brief:
(§1)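 Cells in RPMI 1640 with 10% FBS were seeded at 1 × 10^4 cells/well for 24 h, then exposed for 24 h to compound at 0.01–50 µg/mL. MTT was added for 4 h at 37 °C, and formazan was dissolved in DMSO and read at 570 nm. IC50 came from triplicate viability relative to untreated controls.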

Data set [2] deals with human gastric adenocarcinoma cells (SGC7901). The experiment in a line: Cytotoxicity, MTT assay, SGC7901. It is filed as cell-based. A digest of the protocol: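 Cells seeded 1 × 10^4/well for 24 h, then exposed to serial compound concentrations (50–0.01 µg/mL) for 24 h at 37 °C, 5% CO2; LO2, K562, HeLa, SGC7901 grown in 1640 medium with 10% FBS. MTT 4 h, formazan in DMSO, OD 570 nm; IC50 from triplicate viability versus untreated controls.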

Another data set deals with Bax. The experiment in a line: Western blot, Bax expression. It is filed as cell-based, human. Particulars: HepG2, 3 h, 1.0, 2.0, 4.0 µM, vs negative control. On the procedure:
(§2) The HepG2 cell lines were treated with different dose of by BAP 5c (1.0, 2.0, 4.0 µM, respectively) for 3 hours, then washed twice with PBS, and lysed in ice-cold modified RIPA buffer containing PMSF (RIPA:PMSF = 100:1; the ultimate density of PMSF is 1.0 mM). The lysates were kept for 30 minutes on the ice, and then centrifuged for 15 min at 12000 rpm/min at 4 °C and the supernatant was collected. The proteins were boiled at 95 °C at 5 min with loading buffer (the volume ratio of protein and the loading buffer is 4:1). Each 50 µg protein of cell lysates were separated by 10% SDS-PAGE gel electrophoresis. The proteins were then transferred onto polyvinylidene fluorides membrane. The membranes were probed with antibodies and visualised using an enhanced chemiluminescence (ECL) detection kit according to the manufacturer instruction.

Data set [3] in a line: Body weight of HepG2-bearing mice. It is filed as in vivo, Balb/c nude mice. Particulars: measured every 2 days during treatment. The method, then:
The antitumor effect was investigated on the seven-week-old female Balb/c nude mice (n = 30) weighing 19–21 grams (Shanghai Laboratory Animal Center). Briefly, 0.2 mL HepG2 cells (1 × 10^7/mL) were inoculated subcutaneously into the alar left of each mouse. On the third day after the inoculation, the HepG2-bearing mice were randomly divided into five groups (n = 6/group) and administrated the according drug or solvent. […] The control group was administrated of saline as negative control. The body weight and tumor volumes calculation were recorded from the day of treatment, and the tumor volumes were calculated using the following equation: tumor volume = length × (width)^2 × π/6. Animal experiments were reviewed and approved by the Binzhou Medical University Experimental Animal Committee.

Data set [4] deals with human acute mononuclear granulocyte leukemia (THP-1). The experiment in a line: Cytotoxicity, MTT assay, THP-1. It is filed as cell-based. The method in brief: as §1
A further data set deals with Bcl-2. The experiment in a line: Western blot, Bcl-2 expression. It is filed as cell-based, human. Particulars: HepG2, 3 h, 1.0, 2.0, 4.0 µM, vs negative control. On the procedure:
as §2

Where [5] appears, read: quotient of the IC50 values towards nonmalignant LO2 cells.

Take `O=C1/C(=C/c2cc(/N=C/c3ccc(O)c(O)c3O)ccc2F)CNC/C1=C\c1cc(/N=C/c2ccc(O)c(O)c2O)ccc1F` [5c]: the IC50 in data set [1] (Homo sapiens, A549, MTT, 24 hours) came out at 1400 ± 200 nM; in data set [2] (Homo sapiens, SGC-7901, MTT, 24 hours), 1400 ± 100 nM; in data set [4] (Homo sapiens, THP-1, MTT, 24 hours) it was 900 ± 200 nM. The “A549 SI” value in data set [1] (setting [5]) worked out at 10.7. The “SGC7901 SI” value in data set [2] (setting [5]) was found to be 11.1. For the same compound, the “expression level of Bax” value in the data set on Bax is on record as “up-regulate the expression level of Bax”. In addition, in data set [3], the body weight change result was “no apparent change in body weight”. Besides, in data set [4] (setting [5]), the “THP-1 SI” value was found to be 17.0. Besides, the “expression level of Bcl-2” value in the data set on Bcl-2 was “down-regulate the expression level of Bcl-2”.
